What was measured:
extensor tonus = test: supramaximal electroshock (SES) assay (anticonvulsant activity); type: in vivo, male mouse; conditions: 30 minute pretreat, normalized relative to vehicle control
Experimental: The compounds of the invention are also useful as anticonvulsants due to their anticonvulsant activity in mammals. Anticonvulsant activity is measured in the male mouse using the supramaximal electroshock (SES) assay described in Arch. Int. Pharmacodyn. 92:97-107, 1952. In this procedure, groups of male mice are used. Drugs are prepared using distilled water and, if insoluble, a surfactant is added. Control animals receive vehicle. Drugs are routinely administered interperitoneally (i.p.). The dosage volume is 10 ml/kg. A primary screen is given a 30 minute pretreat. The animals' eyes are placed across the output terminals of an A.C. shocker that delivers 206 volts rms for 300 msec. Electrode paste coats the animals' eyes at the point of contact with the terminals. […] Protection is expressed as normalized percent inhibition relative to vehicle control.

[1] = test system: phenyl-para-quinone induced writhing; test: phenyl-para-quinone writhing assay (analgesia); type: in vivo, mice; conditions: for % Inhibition of Writhing: 20 mg/kg s.c., mice
[2] = test system: Scopolamine Induced Memory Deficit; test: Dark Avoidance Assay (reversal of scopolamine-induced memory deficit); type: in vivo; conditions: mice, retest after 24 hours
Experimental: In this assay, mice are tested for their ability to remember an unpleasant stimulus for a period of 24 hours. A mouse is placed in a chamber that contains a dark compartment; a strong incandescent light drives it to the dark compartment, where an electric shock is administered through metal plates on the floor. The animal is removed from the testing apparatus and tested again, 24 hours later, for the ability to remember the electric shock. If scopolamine, an anticholinergic that is known to cause memory impairment, is administered before an animal's initial exposure to the test chambers, the animal re-enters the dark compartment shortly after being placed in the test chamber 24 hours later. The effect of scopolamine is blocked by an active test compound, resulting in a greater interval before re-entry into the dark compartment. The results for an active compound are expressed as the percent of a group of animals in which the effect of scopolamine is blocked, as manifested by an increased interval between being placed in the test chamber and re-entering the dark compartment. The activity of some of the compounds of the instant invention in the assay are given below in Table 2.

## CCCN(c1ccncc1)N1CCc2ccccc21.O=C(O)C(=O)O [2,3-Dihydro-N-propyl-N-(4-pyridinyl)-1H-indol-1-amine oxalate]
Extensor tonus; 10 mg/kg i.p.
  % Inhibition: -40% at 10 mg/kg i.p.
[1]
  % Inhibition of Writhing: 100% at 20 mg/kg

## CC(=O)Oc1ccccc1C(=O)O [Aspirin, reference compound]
[1]; Mus musculus, sc, read-out: ED₅₀ (subcutaneous dose at which 50% of the phenyl-para-quinone induced writhing is inhibited)
  ED50: 32.8 mg/kg

## c1ccc2c(c1)CCN2Nc1ccncc1 [2,3-Dihydro-N-(4-pyridinyl)-1H-indol-1-amine]
Extensor tonus; 15 mg/kg i.p.
  % Inhibition: -40% at 15 mg/kg i.p.
[2]; 0.3 mg/kg s.c.
  % of Animals With Scopolamine Induced Memory Deficit Reversal: 53%
[1]
  % Inhibition of Writhing: 74% at 20 mg/kg

## CCC1(c2ccccc2)C(=O)NC(=O)NC1=O [Phenobarbital, reference compound]
Extensor tonus; 8.4 mg/kg i.p.
  % Inhibition: -50% at 8.4 mg/kg

## Nc1c2c(nc3ccccc13)CCCC2 [Tacrine]
[2]; 0.63 mg/kg s.c
  % of Animals With Scopolamine Induced Memory Deficit Reversal: 13%

## CC[C@@H]1C(=O)OC[C@@H]1Cc1cncn1C [Pilocarpine]
[2]; 1.25 mg/kg s.c
  % of Animals With Scopolamine Induced Memory Deficit Reversal: 19%

— EP0415103A1, “2,3-Dihydro-1-(pyridinylamino)-indoles, a process for their preparation and their use as medicaments” (HOECHST-ROUSSEL PHARMACEUTICALS INCORPORATED, priority 1989, dated 1991)
